{"source": "ChEMBL document CHEMBL1240440", "about": "“A bioactive labdane diterpenoid from Curcuma amada and its semisynthetic analogues as antitubercular agents” (2010)"}
{"system": "Mycobacterium tuberculosis", "experiment": "Antitubercular activity against Mycobacterium tuberculosis H37Rv ATCC 27294 after 24 hrs by BACTEC radiometric susceptibility assay", "assay_type": "functional", "conditions": "H37Rv ATCC 27294, 24 h", "units": {"MIC": "µg/mL"}}
{"smiles": "C=C1CC[C@H]2C(C)(C)CCC[C@]2(C)[C@H]1C/C=C(/CO)CCO", "MIC": 250}
{"smiles": "CO[C@H]1/C=C/O[C@@]2(C)Oc3c(C)c(O)c4c(O)c(c(/C=N/N5CCN(C)CC5)c(O)c4c3C2=O)NC(=O)/C(C)=C\\C=C\\[C@H](C)[C@H](O)[C@@H](C)[C@@H](O)[C@@H](C)[C@H](OC(C)=O)[C@@H]1C", "note": "[RIFAMPIN]", "MIC": 2}
{"smiles": "C=C1CC[C@H]2C(C)(C)CCC[C@]2(C)[C@H]1C/C=C(\\CCOC(C)=O)COC(C)=O", "MIC": "> 1000"}
{"smiles": "C=C1CC[C@H]2C(C)(C)CCC[C@]2(C)[C@H]1C/C=C(/C=O)CC=O", "MIC": 500}
{"smiles": "CN[C@@H]1[C@H](O[C@H]2[C@H](O[C@H]3[C@H](O)[C@@H](O)[C@H](N=C(N)N)[C@@H](O)[C@@H]3N=C(N)N)O[C@@H](C)[C@]2(O)C=O)O[C@@H](CO)[C@H](O)[C@H]1O", "note": "[STREPTOMYCIN]", "MIC": 2}
{"smiles": "C=C1CC[C@H]2C(C)(C)CCC[C@]2(C)[C@H]1C/C=C(/C=N/O)C/C=N/O", "MIC": 500}
